According to US12606552B2, “Bifunctional compound, preparation method therefor, and use thereof” (SUZHOU KINTOR PHARMACEUTICALS, INC., priority 2020, dated 2026):

Columns and labels:
[1] = test system: flank sebaceous glands of golden hamster; test: In vivo efficacy on acne in female golden hamsters (growth of sebaceous plaques induced by testosterone propionate); conditions: for The inhibition rate of the growth of sebaceous plaques (%): 400 μg (1.6%) + testosterone propionate 12 μg, skin smear once a day, 21 days
Text: Activity Assay Example 7: In Vivo Efficacy of Compounds on Acne in Female Golden Hamsters
1. Test object: The flank sebaceous glands of golden hamster are androgen-dependent organs, and testosterone propionate (male hormone) promotes the enlargement of sebaceous glands. This experiment is mainly to study the inhibitory effect of CB-03-01 (positive drug), Flutamide (positive drug) and the compound on sebaceous gland enlargement in female golden hamster acne model (androgen dependence), to further observe the in vivo drug efficacy of the compound, to provide the basis for clinical trials of androgen-induced acne symptoms.
Androgen (Testosterone Propionate-TP); CB-03-01 (Clascoterone, CAS No. 19608-29-8); □ Flutamide (Flutamide, CAS No. 13311-84-7); compound A46 of the present invention.
2.2 Experimental Animals, See Table 4 for Details
2.3 Administration Vehicle: Acetone. 3. Experimental Design
In this experiment, from 72 female golden hamsters, according to the size and body weight of sebaceous glands, golden hamsters were evenly distributed to each group, 6 mice per group, a total of 7 groups, and they were administered continuously for 21 days.
According to the protocol in the table, […] of drug was administered each time, it was evenly smeared on the sebaceous glands, and administered once a day.
Animal grouping and status observation: Before grouping, the body weight was weighed, and the sebaceous glands on both sides were shaved for the observation of the size of sebaceous glands. Animals were observed twice a day in the morning and afternoon during the administration period. On the 21st day after administration, the size of sebaceous glands and the body weight of animals were observed and recorded.
The size of the sebaceous glands is expressed by the area, and the vernier caliper recorded its long side (a) and short side (b), and the area of the sebaceous glands (S) is obtained from the formula for calculating the area of a rectangle. In model group and administration group, ΔS=S−S(vehicle). Growth inhibition rate (%)=(ΔS(acetone testosterone group)−ΔS (administration group))/ΔS(acetone testosterone group)*100%.

[2] = test system: LNCaP (human prostate cancer); test: Hormone-dependent prostate cancer long-term efficacy test (LNCaP xenograft, tumor growth inhibition); type: in vivo, SCID nude mice
Experimental: Activity Assay Example 5: Hormone-Dependent Prostate Cancer Long-Term Efficacy Test
1. Tumor Model Establishment
1.5*10^7 LNCaP (human prostate cancer) was purchased from the Chinese Academy of Sciences Cell Bank and cultured in RPMI-1640 medium containing 10% fetal bovine serum. The cells were grown to 80-90% confluence and passaged in about 4-5 days, and the cells were grown to a sufficient amount and then inoculated into nude mice.
18-20 g SCID nude mice aged 6-7 weeks old were purchased from Beijing Vital River Co., Ltd. Mice were kept in SPF animal room, in which the temperature was 20-25° C., and the humidity was 40%-70%, and light/dark was 12 hours a day respectively. Animals were kept in separate cages, 5 per cage, with free access to food and water, in which the feed was sterilized by irradiation, and the water was autoclaved. The mice were grouped for experiment when raised to 10˜11 weeks old. LNCaP tumor cells were directly inoculated into the right back of nude mice.
3. Grouping and Administration Schedule Design
When the average tumor volume reached 200-300 mm^3, the tumors with good shape were selected for random number grouping according to the tumor volume, and the selected animals were marked and divided into 5 groups, 5 per group. Administration vehicle: 5% EtOH, 5% solutolHS15 in PBS. The corresponding dose of compound was administered by gavage.
(§1) Data are presented as mean±standard deviation (Mean±SD). One-way multi-level analysis of variance was used for statistics, and the comparison between each drug group and the model group was performed by Stundent's t-test or rank sum test, and the p value was calculated. p<0.05 means there is a significant difference between the two groups.

[3] = target: T1, AR (Homo sapiens, UniProt P10275, T878A); test: Effects of compounds on AR expression in LNCaP cells (ELISA, DC50); type: cell-based; set-up: Measurement of the Effects of Drugs on the Expression of AR in Cells by ELISA Method; endogenous in cells; host or cells: LNCaP; conditions: 24 hours of drug treatment, AR by ELISA
T1 sequence (P10275 1-920 T878A): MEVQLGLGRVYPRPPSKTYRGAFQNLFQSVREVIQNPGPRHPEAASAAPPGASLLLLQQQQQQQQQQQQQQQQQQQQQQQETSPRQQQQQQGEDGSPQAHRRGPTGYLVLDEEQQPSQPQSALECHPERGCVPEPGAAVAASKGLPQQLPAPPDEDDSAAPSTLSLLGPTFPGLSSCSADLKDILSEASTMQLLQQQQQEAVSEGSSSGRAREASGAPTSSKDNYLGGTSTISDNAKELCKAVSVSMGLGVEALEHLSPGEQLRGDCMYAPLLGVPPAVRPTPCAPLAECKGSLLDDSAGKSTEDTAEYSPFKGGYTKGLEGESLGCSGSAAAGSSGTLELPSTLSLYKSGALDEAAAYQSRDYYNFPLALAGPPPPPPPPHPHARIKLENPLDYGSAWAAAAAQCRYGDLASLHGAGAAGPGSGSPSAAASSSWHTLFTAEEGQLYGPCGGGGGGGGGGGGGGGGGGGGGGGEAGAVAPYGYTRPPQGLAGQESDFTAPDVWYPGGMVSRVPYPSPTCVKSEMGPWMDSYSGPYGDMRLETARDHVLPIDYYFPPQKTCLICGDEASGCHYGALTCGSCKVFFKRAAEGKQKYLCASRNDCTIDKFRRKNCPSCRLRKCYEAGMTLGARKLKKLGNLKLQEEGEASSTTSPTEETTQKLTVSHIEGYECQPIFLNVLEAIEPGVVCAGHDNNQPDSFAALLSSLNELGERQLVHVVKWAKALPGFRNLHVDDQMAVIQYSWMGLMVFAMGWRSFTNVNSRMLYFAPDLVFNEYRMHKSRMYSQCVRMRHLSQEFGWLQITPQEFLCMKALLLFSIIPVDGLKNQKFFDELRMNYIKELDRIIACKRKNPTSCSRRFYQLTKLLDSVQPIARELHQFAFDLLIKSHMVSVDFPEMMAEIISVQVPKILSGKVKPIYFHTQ
In short: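 LNCaP cells at about 15,000/well were treated for 24 h with compound at 0.0001–2 μmol/L final. AR in cell lysates was measured by ELISA (OD450). Inhibition was relative to DMSO control after blank subtraction, and DC50 was calculated from it.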

[4] = test system: androgenetic alopecia model in C57BL/6J mice; test: Hair regeneration effects on androgenic alopecia C57 mouse model (DHT-induced); type: in vivo, C57BL/6N mice; conditions: AVER n = 6, score 0-5
Text: Activity Assay Example 8: Hair Regeneration Effects of Compounds on Androgenic Alopecia C57 Mouse Model
The purpose of this study was to compare the effect of the compounds prepared by the present invention as AR protein degraders on hair regrowth in an androgenetic alopecia model in C57BL/6J mice by transdermal application route of administration, and to provide data to support subsequent clinical trials.
2. Experimental Principle
Name of test compound I: dihydrotestosterone DHT; name of test compound II: compound A46 of the present invention; name of test compound III: minoxidil.
4. Experimental animals: strain: C57BL/6N mice; age: 6-7 weeks; gender: male; number of animals: 70 (10 for later use); rearing environment: specific pathogen-free (SPF).
70 mice were deeply anesthetized, and the hair on the back of the mice was removed with an animal shaver, then the depilatory cream (Veet https://item.jd.com/6291245.html) was smeared evenly on the surface of the mice skin, and left 7-10 minutes. Then the hair was gently scraped off with a hair removal scraper against the direction of the hair, and finally the residual hair removal cream on the skin surface was fully washed with water to avoid burning the mice skin.
This experiment was divided into 6 groups, and the DHT administration started on the day of hair removal, A46 is administered on day 2 after hair removal and is counted as day 1 (the day of hair removal is counted as day 0).
5.3 Test Compound Preparation Method
5.4 Observation and Measurement Indicators • 1) Body weight/g: From the first day of administration, body weight was weighed and recorded twice a week. • 2) Hair regeneration (anagen) score (0 points: no darkening of skin color in all areas; 1 point: darkening of gray skin color areas; 2 points: visible short hair; 3 points: thin hair; 4 points: thick hair; 5 points: full hair growth).
All mice were photographed on day 1 after hair removal, and then photographed and scored daily from day 4 until the end of the experiment. • 3) At the end of the experiment, skin and blood collection operations were performed as needed. 5.5 Criteria for Drug Withdrawal and Experiment Termination
as §1, with “average±standard error (AVE±SEM).” for “mean±standard deviation (Mean±SD).”, “statistics. The” for “statistics, and the”, “two groups, p<0.01 means there is a extremely significant difference between the two” for “two”

## CCC(=O)O[C@]1(C(=O)CO)CC[C@H]2[C@@H]3CCC4=CC(=O)CC[C@]4(C)[C@H]3CC[C@@]21C [CB-03-01, Clascoterone, reference compound]
[1]
  The inhibition rate of the growth of sebaceous plaques (%): 69.53%

## Cc1ncsc1-c1ccc(CNC(=O)[C@@H]2C[C@@H](O)CN2C(=O)[C@@H](NC(=O)COCCCCOc2ccc(-c3ncc(N4C(=S)N(c5ccc(C#N)c(C(F)(F)F)c5F)C(=O)C4(C)C)cc3F)c(C(F)(F)F)c2)C(C)(C)C)cc1 [Compound A88]
[2]; 10 mpk by gavage, 3 days
  Tumor growth inhibition rate: 19.81%
[2]; 10 mpk by gavage, 7 days
  Tumor growth inhibition rate: 38.44%
[2]; 10 mpk by gavage, 10 days
  Tumor growth inhibition rate: 31.33%
[2]; 10 mpk by gavage, 14 days
  Tumor growth inhibition rate: 13.15%
[2]; 25 mpk by gavage, 3 days
  Tumor growth inhibition rate: 14.98%
[2]; 25 mpk by gavage, 7 days
  Tumor growth inhibition rate: 36.36%
[2]; 25 mpk by gavage, 10 days
  Tumor growth inhibition rate: 37.51%
[2]; 25 mpk by gavage, 14 days
  Tumor growth inhibition rate: 24.68%
[2]; 50 mpk by gavage, 3 days
  Tumor growth inhibition rate: 22.30%
[2]; 50 mpk by gavage, 7 days
  Tumor growth inhibition rate: 51.85%
[2]; 50 mpk by gavage, 10 days
  Tumor growth inhibition rate: 42.62%
[2]; 50 mpk by gavage, 14 days
  Tumor growth inhibition rate: 24.47%
[3]
  DC50: 55 nM

## C[C@]12CCC(=O)C[C@@H]1CC[C@@H]1[C@@H]2CC[C@]2(C)[C@@H](O)CC[C@@H]12 [DHT, dihydrotestosterone, reference compound]
[4]; DHT 30 mpk subcutaneous alone (model), 0 day
  Hair regeneration score: 0.00
[4]; DHT 30 mpk subcutaneous alone (model), 3 days
  Hair regeneration score: 0.00
[4]; DHT 30 mpk subcutaneous alone (model), 5 days
  Hair regeneration score: 0.00
[4]; DHT 30 mpk subcutaneous alone (model), 7 days
  Hair regeneration score: 0.00
[4]; DHT 30 mpk subcutaneous alone (model), 10 days
  Hair regeneration score: 0.00
[4]; DHT 30 mpk subcutaneous alone (model), 12 days
  Hair regeneration score: 0.00
[4]; DHT 30 mpk subcutaneous alone (model), 14 days
  Hair regeneration score: 0.17
[4]; DHT 30 mpk subcutaneous alone (model), 17 days
  Hair regeneration score: 0.5

## CC(C)C(=O)Nc1ccc([N+](=O)[O-])c(C(F)(F)F)c1 [Flutamide, reference compound]
[1]
  The inhibition rate of the growth of sebaceous plaques (%): 40.74%

## Nc1cc(N2CCCCC2)nc(N)[n+]1[O-] [minoxidil, reference compound]
[4]; 5% skin smear BID + DHT 30 mpk, 0 day
  Hair regeneration score: 0.00
[4]; 5% skin smear BID + DHT 30 mpk, 3 days
  Hair regeneration score: 0.00
[4]; 5% skin smear BID + DHT 30 mpk, 5 days
  Hair regeneration score: 0.00
[4]; 5% skin smear BID + DHT 30 mpk, 7 days
  Hair regeneration score: 0.00
[4]; 5% skin smear BID + DHT 30 mpk, 10 days
  Hair regeneration score: 0.33
[4]; 5% skin smear BID + DHT 30 mpk, 12 days
  Hair regeneration score: 0.67
[4]; 5% skin smear BID + DHT 30 mpk, 14 days
  Hair regeneration score: 1.67
[4]; 5% skin smear BID + DHT 30 mpk, 17 days
  Hair regeneration score: 2.33

## CCC(=O)O[C@H]1CC[C@H]2[C@@H]3CCC4=CC(=O)CC[C@]4(C)[C@H]3CC[C@]12C [testosterone propionate, reference compound]
[1]; model group, 12 μg TP skin smear, after 21 days
  area of sebaceous plaques: 40-50 mm^2
